Reference: ChEMBL document CHEMBL4270670 (J Med Chem, 2018)

What was measured:
[1] = in vitro; conditions: chicken, chicken embryo fibroblasts
[2] = system: Influenza B virus; conditions: mdck
[3] = in vitro; conditions: dog, MDCK cells
[4] = system: Influenza A virus; test: microbe, parasite or virus in culture; conditions: A/Puerto Rico/8/1934(H1N1), MDCK, 48 h
[5] = system: Influenza A virus; test: microbe, parasite or virus in culture; conditions: MDCK, 48 h
[6] = MRT (0 to infinity) in Sprague-Dawley rat at 20 mg/kg, po by LC-MS analysis; assay type: ADME, organism-based; conditions: in vivo
[7] = system: Rattus norvegicus; test: Half life in Sprague-Dawley rat at 20 mg/kg, po by LC-MS analysis; assay type: ADME, organism-based; conditions: in vivo
[8] = system: Rattus norvegicus; test: Tmax in Sprague-Dawley rat at 20 mg/kg, po by LC-MS analysis; assay type: ADME, organism-based; conditions: in vivo
[9] = system: Rattus norvegicus; test: Cmax in Sprague-Dawley rat at 20 mg/kg, po by LC-MS analysis; assay type: ADME, organism-based; set-up: dose 20 mg/kg, route oral; conditions: in vivo
[10] = Oral bioavailability in Sprague-Dawley rat at 20 mg/kg by LC-MS analysis; assay type: ADME, organism-based; conditions: in vivo
[11] = species on record: Rattus norvegicus; conditions: in vivo, po, 20 mg/kg
[12] = in vivo; conditions: Sprague-Dawley, rat, po, 20 mg/kg
[13] = system: Influenza A virus; test: Antiviral activity against Influenza A virus H5N2 infected in specific pathogen free embryonated egg assessed as survival rate at 10 mM preincubated for 1 hr prior to inoculation measured after 48 hrs (reference value: 0%); assay type: functional
[14] = system: Influenza A virus; test: Antiviral activity against Influenza A virus H5N2 infected in specific pathogen free embryonated egg assessed as survival rate at 2.5 mM preincubated for 1 hr prior to inoculation measured after 48 hrs (reference value: 0%); assay type: functional
[15] = system: Influenza A virus; test: Antiviral activity against Influenza A virus H5N2 infected in specific pathogen free embryonated egg assessed as survival rate at 0.625 mM preincubated for 1 hr prior to inoculation measured after 48 hrs (reference value: 0%); assay type: functional
[16] = system: Influenza A virus; test: Antiviral activity against Influenza A virus H5N2 infected in specific pathogen free embryonated egg assessed as survival rate at 0.156 mM preincubated for 1 hr prior to inoculation measured after 48 hrs (reference value: 0%); assay type: functional
[17] = system: Influenza A virus; test: Antiviral activity against Influenza A virus H5N2 infected in specific pathogen free embryonated egg assessed as survival rate at 0.039 mM preincubated for 1 hr prior to inoculation measured after 48 hrs (reference value: 0%); assay type: functional
[18] = system: Influenza A virus; test: Antiviral activity against Influenza A virus H5N2 infected in specific pathogen free embryonated egg assessed as survival rate at 10 mM preincubated for 1 hr prior to inoculation measured after 72 hrs (reference value: 0%); assay type: functional
[19] = system: Influenza A virus; test: Antiviral activity against Influenza A virus H5N2 infected in specific pathogen free embryonated egg assessed as survival rate at 2.5 mM preincubated for 1 hr prior to inoculation measured after 72 hrs (reference value: 0%); assay type: functional
[20] = system: Influenza A virus; test: Antiviral activity against Influenza A virus H5N2 infected in specific pathogen free embryonated egg assessed as survival rate at 0.625 mM preincubated for 1 hr prior to inoculation measured after 72 hrs (reference value: 0%); assay type: functional
[21] = system: Influenza A virus; test: Antiviral activity against Influenza A virus H5N2 infected in specific pathogen free embryonated egg assessed as survival rate at 0.156 mM preincubated for 1 hr prior to inoculation measured after 72 hrs (reference value: 0%); assay type: functional
[22] = system: Influenza A virus; test: Antiviral activity against Influenza A virus H5N2 infected in specific pathogen free embryonated egg assessed as survival rate at 0.039 mM preincubated for 1 hr prior to inoculation measured after 72 hrs (reference value: 0%); assay type: functional
[23] = in vitro; conditions: human, plasma
[24] = in vitro; conditions: human, plasma; remark: listed apart in the source
[25] = in vitro; conditions: human, plasma; remark: listed apart in the source
[26] = in vitro; conditions: human, plasma; remark: listed apart in the source

## CCC(CC)O[C@@H]1C=C(C(=O)O)C[C@H](NCc2ccc(-c3ccc4sccc4c3)cc2)[C@H]1NC(C)=O
[1]
  CC50 at 48 h: > 200 µM

## CCC(CC)O[C@@H]1C=C(C(=O)O)C[C@H](NCc2ccc(Sc3cccs3)cc2)[C@H]1NC(C)=O
[2]
  EC50: 8.5 µM
[1]
  CC50 at 48 h: > 200 µM
[3]
  CC50 at 48 h: > 250 µM
[4]
  EC50: 0.04 µM
[5]
  EC50: 79 µM

## CCC(CC)O[C@@H]1C=C(C(=O)O)C[C@H](NCc2ccc(OC(C)C)cc2)[C@H]1NC(C)=O
[1]
  CC50 at 48 h: > 200 µM

## CCC(CC)O[C@@H]1C=C(C(=O)O)C[C@H](NCc2cccc(-c3ccc(SC)cc3)c2)[C@H]1NC(C)=O
[1]
  CC50 at 48 h: > 200 µM

## CCC(CC)O[C@@H]1C=C(C(=O)O)C[C@H](NCc2ccc(Cc3ccccc3)cc2)[C@H]1NC(C)=O
[1]
  CC50 at 48 h: > 200 µM

## CCOC(=O)C1=C[C@@H](OC(CC)CC)[C@H](NC(C)=O)[C@@H](NCc2ccc(Sc3ccccc3)cc2)C1
[6]
  MRT inf: 17.1 h
[7]
  t1/2: 8.68 h
[8]
  Tmax: 0.57 h
[9]
  Cmax: 445.6 µg/mL
[10]
  bioavailability: 7.1%
[11]
  AUC: 1594.62 ng·h/mL
[12]
  AUC(0-t): 1040 ng·h/mL

## CCC(CC)O[C@@H]1C=C(C(=O)O)C[C@H](NCc2cccc(SC(C)CC)c2)[C@H]1NC(C)=O (stereo partly specified)
[1]
  CC50 at 48 h: > 200 µM

## CCC(CC)O[C@@H]1C=C(C(=O)O)C[C@H](NCc2cccc(OC)c2)[C@H]1NC(C)=O
[1]
  CC50 at 48 h: > 200 µM

## CCC(CC)O[C@@H]1C=C(C(=O)O)C[C@H](NCc2cccc(SC3CCCC3)c2)[C@H]1NC(C)=O
[1]
  CC50 at 48 h: > 200 µM

## CCC(CC)O[C@@H]1C=C(C(=O)O)C[C@H](NCc2ccc(Oc3ccccc3)cc2)[C@H]1NC(C)=O
[1]
  CC50 at 48 h: > 200 µM

## CCC(CC)O[C@@H]1C=C(C(=O)O)C[C@H](NCc2ccc(C(=O)c3ccccc3)cc2)[C@H]1NC(C)=O
[1]
  CC50 at 48 h: > 200 µM

## CCC(CC)O[C@@H]1C=C(C(=O)O)C[C@H](NCc2ccc(-c3cc4ccccc4s3)cc2)[C@H]1NC(C)=O
[2]
  EC50: > 100 µM
[1]
  CC50 at 48 h: > 200 µM
[3]
  CC50 at 48 h: > 250 µM
[4]
  EC50: 7.2 µM
[5]
  EC50: > 100 µM

## CCC(CC)Oc1ccc(CN[C@H]2CC(C(=O)O)=C[C@@H](OC(CC)CC)[C@@H]2NC(C)=O)cc1
[2]
  EC50: > 100 µM
[1]
  CC50 at 48 h: > 200 µM
[3]
  CC50 at 48 h: > 250 µM
[4]
  EC50: 13 µM
[5]
  EC50: > 100 µM

## CCc1ccc(CN[C@H]2CC(C(=O)O)=C[C@@H](OC(CC)CC)[C@@H]2NC(C)=O)cc1
[1]
  CC50 at 48 h: > 200 µM

## CCC(CC)O[C@@H]1C=C(C(=O)O)C[C@H](NCc2ccc(SC(C)CC)cc2)[C@H]1NC(C)=O (stereo partly specified)
[1]
  CC50 at 48 h: > 200 µM

## CCC(CC)O[C@@H]1C=C(C(=O)O)C[C@H](NCc2ccc(-c3ccc(SC)cc3)cc2)[C@H]1NC(C)=O
[1]
  CC50 at 48 h: > 200 µM

## CCC(CC)O[C@@H]1C=C(C(=O)O)C[C@H](NCc2ccc(C(C)(C)C)cc2)[C@H]1NC(C)=O
[1]
  CC50 at 48 h: > 200 µM

## CCC(CC)O[C@@H]1C=C(C(=O)O)C[C@H](NCc2ccc(SC3CCCC3)cc2)[C@H]1NC(C)=O
[1]
  CC50 at 48 h: > 200 µM

## CCC(CC)Oc1cccc(CN[C@H]2CC(C(=O)O)=C[C@@H](OC(CC)CC)[C@@H]2NC(C)=O)c1
[1]
  CC50 at 48 h: > 200 µM

## CCC(CC)O[C@@H]1C=C(C(=O)O)C[C@H](NCc2ccc(S(=O)(=O)c3ccccc3)cc2)[C@H]1NC(C)=O
[1]
  CC50 at 48 h: > 200 µM

## CCC(CC)O[C@@H]1C=C(C(=O)O)C[C@H](NCc2ccc(OC)cc2)[C@H]1NC(C)=O
[2]
  EC50: > 100 µM
[1]
  CC50 at 48 h: > 200 µM
[3]
  CC50 at 48 h: > 250 µM
[4]
  EC50: 3.7 µM
[5]
  EC50: > 100 µM

## CCC(CC)O[C@@H]1C=C(C(=O)O)C[C@H](NCc2ccc(SC3CCCCC3)cc2)[C@H]1NC(C)=O
[2]
  EC50: > 100 µM
[1]
  CC50 at 48 h: > 200 µM
[3]
  CC50 at 48 h: > 250 µM
[4]
  EC50: 17 µM
[5]
  EC50: > 100 µM

## CCC(CC)O[C@@H]1C=C(C(=O)O)C[C@H](NCc2ccc(-c3csc4ccccc34)cc2)[C@H]1NC(C)=O
[1]
  CC50 at 48 h: > 200 µM

## CCC(CC)O[C@@H]1C=C(C(=O)O)C[C@H](NCc2ccc(C(C)C)cc2)[C@H]1NC(C)=O
[1]
  CC50 at 48 h: > 200 µM

## CCC(CC)O[C@@H]1C=C(C(=O)O)C[C@H](NCc2ccc(SCC(C)C)cc2)[C@H]1NC(C)=O
[1]
  CC50 at 48 h: > 200 µM

## CCC(CC)O[C@@H]1C=C(C(=O)O)C[C@H](N)[C@H]1NC(C)=O [OSELTAMIVIR CARBOXYLATE]
[13]
  survival at 10000 µM: 60%
[14]
  survival at 2500 µM: 20%
[15]
  survival at 625 µM: 0%
[16]
  survival at 156 µM: 0%
[17]
  survival at 39 µM: 0%
[18]
  survival at 10000 µM: 0%
[19]
  survival at 2500 µM: 0%
[20]
  survival at 625 µM: 0%
[21]
  survival at 156 µM: 0%
[22]
  survival at 39 µM: 0%
[2]
  EC50: 2.9 µM
[1]
  CC50 at 48 h: > 200 µM
[3]
  CC50 at 48 h: > 250 µM
[4]
  EC50: 0.041 µM
[5]
  EC50: 1.2 µM

## CC(C)[N+](C)(CCOC(=O)C1c2ccccc2Oc2ccccc21)C(C)C.[Br-] [PROPANTHELINE BROMIDE]
[23]
  remaining at 10 min, 2 µM: 54.9%
[24]
  remaining at 0.5 h, 2 µM: 19.1%
[25]
  remaining at 1 h, 2 µM: 2.1%
[26]
  half-life at 2 µM: 0.18 h

## NC(=O)c1ncn([C@@H]2O[C@H](CO)[C@@H](O)[C@H]2O)n1 [RIBAVIRIN]
[1]
  CC50 at 48 h: > 200 µM

## CC(=O)N[C@H]1[C@H]([C@H](O)[C@H](O)CO)OC(C(=O)O)=C[C@@H]1NC(=N)N [ZANAMIVIR]
[2]
  EC50: 0.9 µM
[1]
  CC50 at 48 h: > 200 µM
[3]
  CC50 at 48 h: > 250 µM
[4]
  EC50: 0.038 µM
[5]
  EC50: 0.3 µM
